Data: publication PMC5810560 (Chemico-biological interactions, 2017)
Where “and” joins values, the source holds several entries; their conditions need not be identical. Identical values can stand only once.

Columns and labels:
[1] = Parallel artificial membrane permeability assay; details: 100 μM in HBSS
[2] = RS194B biodistribution / brain penetration in perfused tissues; details: for Tissue level at Cmax, percent of administered dose, Brain / Tissue level at Cmax, percent of administered dose, Heart / Tissue level at Cmax, percent of administered dose, Kidney / Tissue level at Cmax, percent of administered dose, Liver / Tissue level at Cmax, percent of administered dose, Lung / Tissue level at Cmax, percent of administered dose, Spleen: total tissue weight
[3] = RS194B plasma pharmacokinetics; details: for AUC0-t: t = 24 h
[4] = Renal clearance: urine radioactivity and HPLC of urine; details: for percent of the administered dose in urine: guinea pig
[5] = mice dosed with 80 mg/kg; ref Radic et al., 2012; cited from earlier work
[6] = test system: Human cerebral microvascular cells (HCMEC/D3); test: Brain endothelial cell traversal; details: 100 μM in HBSS, apical to basolateral
[7] = target: p-gp (MDR1) (Homo sapiens, UniProt P08183); test: MDR1 efflux assessment in MDR1-MDCK and MDCK parent cells; details: MDR1-MDCK vs MDCK cells, 100 μM; NFR > 1 = possible p-gp substrate
p-gp (MDR1), sequence (P08183 whole entry, looked up): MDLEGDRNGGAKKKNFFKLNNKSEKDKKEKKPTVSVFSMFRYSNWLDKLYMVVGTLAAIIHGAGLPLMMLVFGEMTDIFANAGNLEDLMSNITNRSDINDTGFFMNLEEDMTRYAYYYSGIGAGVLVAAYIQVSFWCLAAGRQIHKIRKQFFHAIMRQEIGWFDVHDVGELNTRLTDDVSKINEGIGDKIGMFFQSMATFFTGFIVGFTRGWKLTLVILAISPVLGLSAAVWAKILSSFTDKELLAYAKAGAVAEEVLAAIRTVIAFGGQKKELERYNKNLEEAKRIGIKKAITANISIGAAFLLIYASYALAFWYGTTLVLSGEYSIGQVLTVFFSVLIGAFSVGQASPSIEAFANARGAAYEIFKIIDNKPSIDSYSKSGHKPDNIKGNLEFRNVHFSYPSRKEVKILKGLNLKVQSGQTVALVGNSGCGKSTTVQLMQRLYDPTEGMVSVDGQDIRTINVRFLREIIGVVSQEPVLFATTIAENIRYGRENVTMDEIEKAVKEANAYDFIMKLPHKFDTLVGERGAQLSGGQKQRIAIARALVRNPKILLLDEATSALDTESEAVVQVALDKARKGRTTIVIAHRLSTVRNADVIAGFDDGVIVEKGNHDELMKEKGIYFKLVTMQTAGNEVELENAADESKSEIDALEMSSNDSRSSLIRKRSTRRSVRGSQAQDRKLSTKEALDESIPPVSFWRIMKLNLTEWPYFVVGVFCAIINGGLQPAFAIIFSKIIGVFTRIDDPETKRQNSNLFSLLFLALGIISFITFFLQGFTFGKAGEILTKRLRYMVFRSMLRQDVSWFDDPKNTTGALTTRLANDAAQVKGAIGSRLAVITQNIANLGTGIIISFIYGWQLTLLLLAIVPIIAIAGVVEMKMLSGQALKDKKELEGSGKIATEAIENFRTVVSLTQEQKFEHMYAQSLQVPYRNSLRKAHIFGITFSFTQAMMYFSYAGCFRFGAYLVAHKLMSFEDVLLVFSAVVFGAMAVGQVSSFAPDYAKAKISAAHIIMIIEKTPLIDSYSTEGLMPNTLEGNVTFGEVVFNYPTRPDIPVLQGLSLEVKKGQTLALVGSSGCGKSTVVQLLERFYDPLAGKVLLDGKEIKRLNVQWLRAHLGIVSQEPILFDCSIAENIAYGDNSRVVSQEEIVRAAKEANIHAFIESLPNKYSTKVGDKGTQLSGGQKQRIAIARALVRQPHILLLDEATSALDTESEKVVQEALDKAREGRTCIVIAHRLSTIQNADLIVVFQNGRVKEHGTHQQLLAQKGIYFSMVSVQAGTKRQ

[8] = guinea pig, after IV administration, post dose
[9] = dose increase from 10 to 200 mg/kg (20-fold), IV
[10] = guinea pig plasma, single IM dose 50 mg/kg
[11] = guinea pig plasma, single IV dose 10 mg/kg
[12] = guinea pig plasma, single IV dose 50 mg/kg
[13] = guinea pig plasma, single IV dose 100 mg/kg
[14] = guinea pig plasma, single IV dose 200 mg/kg

O=C(C=NO)NCCN1CCCCCC1 [RS194B]
effective permeability (Peff), PAMPA ([1]; five hours, 25°C, vs threshold for moderate permeability): < 2 ×10⁻⁶ cm/s
PAMPA diffusion relative to controls ([1]; vs 2-PAM and diazepam positive control): increased diffusion relative to the 2-PAM standard of care, rate of permeation was dramatically lower than the diazepam positive control
brain/ plasma ([2]; guinea pig, IM 50 mg/kg, 0.08 hr (brain Cmax)): 0.058 and 0.06 ± 0.002
brain/ plasma ([2]; guinea pig, IM 50 mg/kg, 0.25 hr): 0.04 ± 0.006
brain/ plasma ([2]; guinea pig, IM 50 mg/kg, 0.5 hr): 0.03 ± 0.002
brain/ plasma ([2]; guinea pig, IM 50 mg/kg, 1 hr): 0.02 ± 0.010
brain/ plasma ([2]; guinea pig, IM 50 mg/kg, 2 hr): 0.02 ± 0.001
brain/ plasma ([2]; guinea pig, IM 50 mg/kg, 4 hr): 0.06 ± 0.005
brain/ plasma ([2]; guinea pig, IM 50 mg/kg, 8 hr): 0.08 ± 0.007
brain/ plasma ([2]; guinea pig, IM 50 mg/kg, 24 hr): 0.19 ± 0.045
Tissue level at Cmax, percent of administered dose, Brain ([2]; guinea pig, IM 50 mg/kg): 0.02 ± 0.005% of administered dose
Tissue level at Cmax, percent of administered dose, Heart ([2]; guinea pig, IM 50 mg/kg): 0.07 ± 0.02% of administered dose
Tissue level at Cmax, percent of administered dose, Kidney ([2]; guinea pig, IM 50 mg/kg): 2.87 ± 0.48% of administered dose
Tissue level at Cmax, percent of administered dose, Liver ([2]; guinea pig, IM 50 mg/kg): 7.04 ± 0.61% of administered dose
Tissue level at Cmax, percent of administered dose, Lung ([2]; guinea pig, IM 50 mg/kg): 0.67 ± 0.16% of administered dose
Tissue level at Cmax, percent of administered dose, Spleen ([2]; guinea pig, IM 50 mg/kg): 0.03 ± 0.01% of administered dose
brain-to-plasma ratio at later time points over ratio at Tmax ([2]; guinea pig, IM exposure): 3.2 times
brain/ plasma ([2]; guinea pig, IV 10 mg/kg, 0.08 hr (brain Cmax)): 0.04 ± 0.001
brain/ plasma ([2]; guinea pig, IV 10 mg/kg, 0.25 hr): 0.040 ±0.002
brain/ plasma ([2]; guinea pig, IV 10 mg/kg, 0.5 hr): 0.03 ± 0.002
brain/ plasma ([2]; guinea pig, IV 10 mg/kg, 1 hr): 0.02 ± 0.001
brain/ plasma ([2]; guinea pig, IV 10 mg/kg, 2 hr): 0.03 ± 0.003
brain/ plasma ([2]; guinea pig, IV 10 mg/kg, 4 hr): 0.05 ± 0.003
brain/ plasma ([2]; guinea pig, IV 10 mg/kg, 8 hr): 0.09 ± 0.011
brain/ plasma ([2]; guinea pig, IV 10 mg/kg, 24 hr): 0.11 ± 0.035
Tissue level at Cmax, percent of administered dose, Heart ([2]; guinea pig, IV 10 mg/kg): 0.05 ± 0.01% of administered dose
Tissue level at Cmax, percent of administered dose, Kidney ([2]; guinea pig, IV 10 mg/kg): 5.19 ± 0.23% of administered dose
Tissue level at Cmax, percent of administered dose, Liver ([2]; guinea pig, IV 10 mg/kg): 8.76 ± 0.32% of administered dose
Tissue level at Cmax, percent of administered dose, Lung ([2]; guinea pig, IV 10 mg/kg): 0.45 ± 0.04% of administered dose
Tissue level at Cmax, percent of administered dose, Spleen ([2]; guinea pig, IV 10 mg/kg): 0.04 ± 0.01% of administered dose
Tissue level at Cmax, percent of administered dose, Brain ([2]; guinea pig, IV 10 mg/kg, 10 mg/kg): 0.03% of administered dose and 0.03 ± 0.002% of administered dose
brain/ plasma ([2]; guinea pig, IV 50 mg/kg, 0.08 hr (brain Cmax)): 0.09 ± 0.006
brain/ plasma ([2]; guinea pig, IV 50 mg/kg, 0.25 hr): 0.08 ± 0.005
brain/ plasma ([2]; guinea pig, IV 50 mg/kg, 0.5 hr): 0.05 ± 0.003
brain/ plasma ([2]; guinea pig, IV 50 mg/kg, 1 hr): 0.03 ± 0.014
brain/ plasma ([2]; guinea pig, IV 50 mg/kg, 2 hr): 0.03 ± 0.002
brain/ plasma ([2]; guinea pig, IV 50 mg/kg, 4 hr): 0.07 ± 0.004
brain/ plasma ([2]; guinea pig, IV 50 mg/kg, 8 hr): 0.07 ± 0.009
brain/ plasma ([2]; guinea pig, IV 50 mg/kg, 24 hr): 0.18 ± 0.062
Tissue level at Cmax, percent of administered dose, Brain ([2]; guinea pig, IV 50 mg/kg): 0.09 ± 0.01% of administered dose
Tissue level at Cmax, percent of administered dose, Heart ([2]; guinea pig, IV 50 mg/kg): 0.06 ± 0.01% of administered dose
Tissue level at Cmax, percent of administered dose, Kidney ([2]; guinea pig, IV 50 mg/kg): 5.16 ± 0.52% of administered dose
Tissue level at Cmax, percent of administered dose, Liver ([2]; guinea pig, IV 50 mg/kg): 8.60 ± 0.48% of administered dose
Tissue level at Cmax, percent of administered dose, Lung ([2]; guinea pig, IV 50 mg/kg): 0.95 ± 0.12% of administered dose
Tissue level at Cmax, percent of administered dose, Spleen ([2]; guinea pig, IV 50 mg/kg): 0.08 ± 0.01% of administered dose
brain/ plasma ([2]; guinea pig, IV 100 mg/kg, 0.08 hr (brain Cmax)): 0.12 ± 0.006
brain/ plasma ([2]; guinea pig, IV 100 mg/kg, 0.25 hr): 0.10 ± 0.008
brain/ plasma ([2]; guinea pig, IV 100 mg/kg, 0.5 hr): 0.12 ± 0.007
brain/ plasma ([2]; guinea pig, IV 100 mg/kg, 1 hr): 0.05 ± 0.001
brain/ plasma ([2]; guinea pig, IV 100 mg/kg, 2 hr): 0.05 ± 0.005
brain/ plasma ([2]; guinea pig, IV 100 mg/kg, 4 hr): 0.08 ± 0.005
brain/ plasma ([2]; guinea pig, IV 100 mg/kg, 8 hr): 0.08 ± 0.010
brain/ plasma ([2]; guinea pig, IV 100 mg/kg, 24 hr): 0.06 ± 0.008
Tissue level at Cmax, percent of administered dose, Brain ([2]; guinea pig, IV 100 mg/kg): 0.11 ± 0.01% of administered dose
Tissue level at Cmax, percent of administered dose, Heart ([2]; guinea pig, IV 100 mg/kg): 0.05 ± 0.01% of administered dose
Tissue level at Cmax, percent of administered dose, Kidney ([2]; guinea pig, IV 100 mg/kg): 3.81 ± 0.42% of administered dose
Tissue level at Cmax, percent of administered dose, Liver ([2]; guinea pig, IV 100 mg/kg): 8.32 ± 0.42% of administered dose
Tissue level at Cmax, percent of administered dose, Lung ([2]; guinea pig, IV 100 mg/kg): 0.77 ± 0.04% of administered dose
Tissue level at Cmax, percent of administered dose, Spleen ([2]; guinea pig, IV 100 mg/kg): 0.07 ± 0.01% of administered dose
brain/ plasma ([2]; guinea pig, IV 200 mg/kg, 0.08 hr (brain Cmax)): 0.18 ± 0.013
brain/ plasma ([2]; guinea pig, IV 200 mg/kg, 0.25 hr): 0.19 ± 0.012
brain/ plasma ([2]; guinea pig, IV 200 mg/kg, 0.5 hr): 0.27 ± 0.080
brain/ plasma ([2]; guinea pig, IV 200 mg/kg, 1 hr): 0.15 ± 0.028
brain/ plasma ([2]; guinea pig, IV 200 mg/kg, 2 hr): 0.08 ± 0.009
brain/ plasma ([2]; guinea pig, IV 200 mg/kg, 4 hr): 0.08 ± 0.005
brain/ plasma ([2]; guinea pig, IV 200 mg/kg, 8 hr): 0.12 ± 0.010
brain/ plasma ([2]; guinea pig, IV 200 mg/kg, 24 hr): 0.22 ± 0.071
Tissue level at Cmax, percent of administered dose, Heart ([2]; guinea pig, IV 200 mg/kg): 0.08 ± 0.01% of administered dose
Tissue level at Cmax, percent of administered dose, Kidney ([2]; guinea pig, IV 200 mg/kg): 3.65 ± 0.48% of administered dose
Tissue level at Cmax, percent of administered dose, Liver ([2]; guinea pig, IV 200 mg/kg): 5.25 ± 0.32% of administered dose
Tissue level at Cmax, percent of administered dose, Lung ([2]; guinea pig, IV 200 mg/kg): 0.85 ± 0.04% of administered dose
Tissue level at Cmax, percent of administered dose, Spleen ([2]; guinea pig, IV 200 mg/kg): 0.12 ± 0.01% of administered dose
Tissue level at Cmax, percent of administered dose, Brain ([2]; guinea pig, IV 200 mg/kg, 200 mg/kg): 0.18% of administered dose and 0.18 ± 0.01% of administered dose
time of tissue Cmax, all tissues except the liver [2, 8]: 5 to 15 min
time of tissue Cmax, liver [2, 8]: 30 min
heart, percent of the administered dose at Cmax ([2]; mean over the dose range, IV): 0.06%
all other tissues, percent of the administered dose at Cmax ([2]; tissues other than liver and kidney, IV): less than 1%
increase in mean AUC0-t [3, 9]: 32 fold
increase in mean C0 [3, 9]: 25 fold
power regression slope, AUC0-t vs dose ([3]; dose range 10-200 mg/kg IV): 1.13
power regression slope, C0 vs dose ([3]; dose range 10-200 mg/kg IV): 1.09
tmax ([3]; guinea pig plasma, IM 50 mg/kg): 0.5 h
mean apparent distribution half-life (t1/2α), range ([3]; guinea pig plasma, across four IV doses 10-200 mg/kg): 0.78 to 1.5 h
AUC0-inf [3, 10]: 78740 ± 3750 ng·h/mL
C0 [3, 10]: 24900 ± 1440 ng/mL
CL [3, 10]: 10.697 ± 0.522 mL/min/kg
T1/2;β [3, 10]: 8.53 ± 1.49 h
Vd [3, 10]: 7.729 ± 1.08899 L/kg
t1/2α [3, 10]: 0.87 ± 0.13 h
AUC0-t [3, 10]: 73500 ± 2410 ng·h/mL
AUC0-inf [3, 11]: 17530 ± 1350 ng·h/mL
C0 [3, 11]: 6230 ± 150 ng/mL
CL [3, 11]: 9.8418 ± 0.8645 mL/min/kg
T1/2;β [3, 11]: 10.41 ± 1.54 h
Vd [3, 11]: 8.67515 ± 1.99977 L/kg
t1/2α [3, 11]: 0.79 ± 0.07 h
AUC0-t [3, 11]: 15270 ± 1230 ng·h/mL
C0 [3, 12]: 42770 ± 2500 ng/mL
CL [3, 12]: 9.1108 ± 0.4573 mL/min/kg
T1/2;β [3, 12]: 10.68 ± 1.94 h
Vd [3, 12]: 8.37818 ± 1.44868 L/kg
t1/2α [3, 12]: 1.03 ± 0.28 h
AUC0-t [3, 12]: 83800 ± 4050 ng·h/mL
AUC0-inf [3, 13]: 223600 ± 14560 ng·h/mL
C0 [3, 13]: 93180 ± 3400 ng/mL
CL [3, 13]: 7.5982 ± 0.4475 mL/min/kg
T1/2;β [3, 13]: 12.87 ± 2.16 h
Vd [3, 13]: 8.32203 ± 1.44265 L/kg
t1/2α [3, 13]: 0.78 ± 0.05 h
AUC0-t [3, 13]: 188050 ± 11100 ng·h/mL
AUC0-inf [3, 14]: 530830 ± 57860 ng·h/mL
C0 [3, 14]: 157660 ± 4340 ng/mL
CL [3, 14]: 6.6752 ± 0.7335 mL/min/kg
T1/2;β [3, 14]: 9.75 ± 1.83 h
Vd [3, 14]: 5.80208 ± 1.32987 L/kg
t1/2α [3, 14]: 1.50 ± 0.20 h
AUC0-t [3, 14]: 488520 ± 63160 ng·h/mL
plasma t1/2 ([3]; guinea pig, as summarised in abstract): ~1 h
radioactivity recovered in the urine ([4]; first 4 h post dose, three highest dose concentrations): over 60%
metabolic stability (HPLC of 0-4 h urine) ([4]; guinea pig urine, one radioactive peak matching RS194B standard): metabolically stable
percent of the administered dose in urine ([4]; IV 10 mg/kg, first 24 h): 11-28%
percent of the administered dose in urine ([4]; IV 50 mg/kg, first 24 hr post dose): 49-77%
percent of the administered dose in urine ([4]; IV 100 mg/kg, first 24 hr post dose): 46-68%
percent of the administered dose in urine ([4]; IV 200 mg/kg, first 24 hr post dose): 59-79%
brain/plasma ratio [5]: 0.3
permeability across HCMEC/D3 monolayer relative to controls [6]: permeability was improved over that of 2-PAM, but was lower than that of a known permeable compound
net flux ratio (NFR) [7]: ≤ 1
